Measurements from ChEMBL document CHEMBL1136336, “Aryl[a]pyrrolo[3,4-c]carbazoles as selective cyclin D1-CDK4 inhibitors” (Bioorg Med Chem Lett, 2003).

Columns and labels:
[1] = target: cAMP-dependent protein kinase (PKA) (Homo sapiens, UniProt P22694+P17612+P22612); assay: Inhibition of Protein kinase A; format: protein assay
[2] = tested on: NCI-H460; assay: Inhibition of human NCI-H460 (lung) carcinoma cell proliferation; format: functional, cell-based
[3] = target: Cyclin-dependent kinase 4/cyclin D1 (Homo sapiens, UniProt P11802); assay: Inhibitory activity against Cyclin D1-cyclin-dependent kinase 4 by measuring the phosphorylation of RbING; format: protein-complex assay
[4] = target: Cyclin-dependent kinase 2/cyclin E (Homo sapiens, UniProt P24941); assay: Inhibition of Cyclin E-cyclin-dependent kinase 2; format: protein-complex assay
[5] = tested on: HCT-116; assay: Inhibition of human HCT(colon) carcinoma cell proliferation; format: functional, cell-based
[6] = target: Glycogen synthase kinase-3 beta (Homo sapiens, UniProt P49841); assay: Inhibition of Glycogen synthase kinase-3 beta
[7] = target: Protein kinase C beta type (Homo sapiens, UniProt P05771); assay: Inhibition of Protein kinase C beta 2
[8] = target: Protein kinase C gamma type (Homo sapiens, UniProt P05129); assay: Inhibition of Protein kinase C gamma
[9] = target: Protein kinase C alpha type (Homo sapiens, UniProt P17252); assay: Inhibition of Protein kinase C alpha
[10] = target: Cyclin-dependent kinase 1/cyclin B (Homo sapiens, UniProt P06493); assay: Inhibition of Cyclin B-cyclin-dependent kinase 1; format: protein-complex assay

Cyclin-dependent kinase 4/cyclin D1, sequence (P11802 whole entry): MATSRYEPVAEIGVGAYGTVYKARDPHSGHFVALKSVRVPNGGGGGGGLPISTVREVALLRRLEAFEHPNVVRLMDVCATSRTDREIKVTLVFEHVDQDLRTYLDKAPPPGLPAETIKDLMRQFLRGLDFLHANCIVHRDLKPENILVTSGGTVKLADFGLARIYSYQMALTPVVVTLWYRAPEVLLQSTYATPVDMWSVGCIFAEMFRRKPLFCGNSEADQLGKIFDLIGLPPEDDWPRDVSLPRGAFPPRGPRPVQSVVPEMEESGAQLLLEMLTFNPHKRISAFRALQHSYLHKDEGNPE
Cyclin-dependent kinase 4/cyclin D1, sequence (P24385 whole entry, further chain): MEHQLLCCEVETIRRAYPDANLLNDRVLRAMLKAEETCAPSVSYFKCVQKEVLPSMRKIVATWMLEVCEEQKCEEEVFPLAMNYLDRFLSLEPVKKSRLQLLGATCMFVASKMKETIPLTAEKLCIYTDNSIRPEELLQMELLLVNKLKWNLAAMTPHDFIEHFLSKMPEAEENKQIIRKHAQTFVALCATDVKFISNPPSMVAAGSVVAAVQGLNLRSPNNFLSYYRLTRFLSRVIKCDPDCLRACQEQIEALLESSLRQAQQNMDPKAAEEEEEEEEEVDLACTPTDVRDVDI
Protein kinase C beta type, sequence (P05771 whole entry): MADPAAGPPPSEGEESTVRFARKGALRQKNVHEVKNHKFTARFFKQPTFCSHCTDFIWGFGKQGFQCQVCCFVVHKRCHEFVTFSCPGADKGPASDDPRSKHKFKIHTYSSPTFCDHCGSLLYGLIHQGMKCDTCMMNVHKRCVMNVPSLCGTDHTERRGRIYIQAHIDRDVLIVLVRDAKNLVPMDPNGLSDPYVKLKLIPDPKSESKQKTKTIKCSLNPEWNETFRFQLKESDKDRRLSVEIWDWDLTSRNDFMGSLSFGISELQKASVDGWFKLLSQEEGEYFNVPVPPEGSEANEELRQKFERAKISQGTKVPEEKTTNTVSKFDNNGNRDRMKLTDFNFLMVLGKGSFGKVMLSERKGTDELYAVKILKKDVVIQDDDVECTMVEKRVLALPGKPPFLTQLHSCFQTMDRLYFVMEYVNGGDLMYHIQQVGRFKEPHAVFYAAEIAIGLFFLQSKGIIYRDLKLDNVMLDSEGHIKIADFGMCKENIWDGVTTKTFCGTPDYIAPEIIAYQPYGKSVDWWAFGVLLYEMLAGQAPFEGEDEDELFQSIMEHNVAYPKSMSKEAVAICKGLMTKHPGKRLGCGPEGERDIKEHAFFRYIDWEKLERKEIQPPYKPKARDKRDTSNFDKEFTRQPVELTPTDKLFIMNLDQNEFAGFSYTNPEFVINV
Glycogen synthase kinase-3 beta, sequence (P49841 whole entry): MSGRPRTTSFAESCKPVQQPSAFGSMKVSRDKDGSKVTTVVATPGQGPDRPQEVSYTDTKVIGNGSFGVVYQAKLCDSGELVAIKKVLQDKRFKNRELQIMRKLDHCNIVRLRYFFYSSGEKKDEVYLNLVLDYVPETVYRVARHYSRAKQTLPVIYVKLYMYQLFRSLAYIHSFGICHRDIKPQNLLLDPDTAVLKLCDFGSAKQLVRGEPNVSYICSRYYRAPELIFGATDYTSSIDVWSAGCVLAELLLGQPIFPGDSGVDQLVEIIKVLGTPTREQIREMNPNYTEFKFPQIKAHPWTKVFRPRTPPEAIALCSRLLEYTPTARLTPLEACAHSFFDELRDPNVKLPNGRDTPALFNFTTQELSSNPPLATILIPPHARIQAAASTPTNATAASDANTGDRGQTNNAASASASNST

Row | IC50 [2] | IC50 [3] | IC50 [5] | Structure (SMILES) | also measured
1 | 1160 nM | 250 nM | 1050 nM | O=C1NC(=O)c2c1c1c3ccc[nH]c-3nc1c1[nH]c3ccccc3c21 | –
2 | > 10000 nM | 180 nM | > 10000 nM | O=C1NC(=O)c2c1c1ncccc1c1[nH]c3ccccc3c21 | –
3 | 3420 nM | 260 nM | 5830 nM | O=C1NC(=O)c2c1c1ccccc1c1[nH]c3ccccc3c21 | –
4 | – | 1810 nM | – | O=C1NC(=O)c2c1c1ccncc1c1[nH]c3ccccc3c21 | –
5 | 2840 nM | 220 nM | 3020 nM | O=C1NC(=O)c2c1c1c3ccccc3[nH]c1c1sc3ccccc3c21 | –
6 | – | – | – | O=C1NC(=O)c2c1c1c3ccccc3[nH]c1c1[nH]c3ccccc3c21 [STAUROSPORINE AGLYCON] | IC50 [1]: > 2000 nM
7 | – | 740 nM | – | O=C1NC(=O)c2c1c1[nH]cnc1c1[nH]c3ccccc3c21 [GRANULATIMIDE] | –
8 | > 10000 nM | 430 nM | > 10000 nM | O=C1NC(=O)c2c1c1ccc3ccccc3c1c1[nH]c3ccccc3c21 | –
9 | – | 410 nM | – | O=C1NC(=O)c2c1c1c3c(ccc1c1[nH]c4ccccc4c21)CCCC3 | –
10 | > 10000 nM | 150 nM | > 10000 nM | O=C1NC(=O)c2c1c1sccc1c1[nH]c3ccccc3c21 | –
11 | – | > 10000 nM | – | O=C1NC(=O)c2c1c1cc3ccccc3cc1c1[nH]c3ccccc3c21 | –

Row | Structure (SMILES) | IC50 [2] | IC50 [3] | IC50 [5] | also measured
12 | O=C1NCc2c1c1c3ccccc3[nH]c1c1[nH]c3ccccc3c21 [STAUROSPORINONE] | 3200 nM | 830 nM | 1720 nM | IC50 [1]: > 2000 nM; IC50 [4]: > 1000 nM
13 | O=C1NC(=O)c2c1c1c3ccccc3ccc1c1[nH]c3ccccc3c21 | 2110 nM | 45 nM | 5050 nM | IC50 [1]: > 20000 nM; IC50 [6]: 4380 nM; IC50 [7]: 9000 nM; IC50 [8]: 56500 nM; IC50 [4]: 275 nM; IC50 [9]: 52800 nM; IC50 [10]: 590 nM
14 | O=C1NC(O)c2c1c1c3ccccc3[nH]c1c1[nH]c3ccccc3c21 (centres undefined) | – | 3830 nM | – | –
